Laboratory results as given in patent US20080312208A1, “Pyridine Analogues” (ASTRAZENECA AB, priority 2005, published 2008).

Key:
[1] = target: T1, P2Y12 receptor (Homo sapiens, UniProt Q9H244); experiment: Functional inhibition of 2-Me-S-ADP induced P2Y12 signalling (35S-GTPγS, cell membranes); type: biochemical; conditions: membranes from P2Y12 transfected CHO-cells, EC80 concentration of agonist 2-methyl-thio-adenosine diphosphate, 30° C. for 45 min
T1 construct: expressed in transfected cells; host or cells: CHO cells (membranes)
T1 sequence (Q9H244 whole entry): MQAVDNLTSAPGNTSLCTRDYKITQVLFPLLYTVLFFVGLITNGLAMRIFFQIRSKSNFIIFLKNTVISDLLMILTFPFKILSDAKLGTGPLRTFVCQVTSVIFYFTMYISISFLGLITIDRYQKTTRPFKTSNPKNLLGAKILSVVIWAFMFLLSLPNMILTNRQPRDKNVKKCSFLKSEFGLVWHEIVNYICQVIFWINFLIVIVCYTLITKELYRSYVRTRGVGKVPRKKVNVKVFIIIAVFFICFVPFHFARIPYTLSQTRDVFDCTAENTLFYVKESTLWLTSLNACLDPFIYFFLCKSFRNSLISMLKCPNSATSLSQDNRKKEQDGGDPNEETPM
Protocol: Functional inhibition of the P2Y12 receptor can be measured by in vitro assays using cell membranes from P2Y12 transfected CHO-cells, the methodology is indicated below.
Functional inhibition of 2-Me-S-ADP induced P2Y12 signalling: 5 μg of membranes were diluted in 200 μl of 200 mM NaCl, 1 mM MgCl2, 50 mM HEPES (pH 7.4), 0.01% BSA, 30 μg/ml saponin and 10 μM GDP. To this was added an EC80 concentration of agonist (2-methyl-thio-adenosine diphosphate), the required concentration of test compound and 0.1 μCi ^35S-GTPγS. The reaction was allowed to proceed at 30° C. for 45 min. Samples were then transferred on to GF/B filters using a cell harvester and washed with wash buffer (50 mM Tris (pH 7.4), 5 mM MgCl2, 50 mM NaCl). Filters were then covered with scintillant and counted for the amount of ^35S-GTPγS retained by the filter. Maximum activity was that determined in the presence of the agonist and minimum activity in the absence of the agonist following subtraction of the value determined for nonspecific activity. The effect of compounds at various concentrations was plotted according to the equation
y=A+((B−A)/(1+((C/x)̂D)))
and IC50 estimated where A is the bottom plateau of the curve i.e. the final minimum y value B is the top of the plateau of the curve i.e. the final maximum y value C is the x value at the middle of the curve. […]

[2] = Moisture adsorption of crystalline form on storage at 80% RH; type: physicochemical; conditions: stored at 80% RH (ambient)
Protocol: The crystalline forms may be further characterised by the presence of one or more of the additional properties listed below: • (i) for Form I • (I) when characterised by thermogravimetric analysis, a weight loss of approx. 0.8% occurs in the range from 25° C. up to 205° C., and/or • (II) when characterised by differential scanning calorimetry, at a heating rate of 10° C. per minute in a closed cup with a pinhole under flowing nitrogen, a melting temperature (Tm) having an onset at about 194° C. and/or an associated endotherm of melting of about 96 J/g; and/or • (III) when stored at 80% RH (ambient) less than 0.2% moisture is adsorbed, • (i) […] • (I) when characterised by thermogravimetric analysis, a weight loss of approx. 0.2% occurs in the range from 25° C. up to 205° C., and/or • (II) when characterised by differential scanning calorimetry, at a heating rate of 10° C. per minute in a closed cup with a pinhole under flowing nitrogen, a melting temperature (Tm) having an onset at about 193° C. and/or an associated endotherm of melting of about 105 J/g.

IC50 [1]	moisture adsorbed [2]	SMILES
460 nM		Cc1nc(N2CC(C(=O)NS(=O)(=O)Cc3cccc(F)c3)C2)c(C#N)cc1C(=O)OC(C)C [Example 91, Isopropyl 5-cyano-6-[3-({[(3-fluorobenzyl)sulfonyl]amino}carbonyl)azetidin-1-yl]-2-methylnicotinate]
250 nM		CCOC(=O)c1cc(C#N)c(N2CCC(C(=O)NS(=O)(=O)Cc3ccc(C(C)C)cc3)CC2)nc1C [Example 119, Ethyl 5-cyano-6-[4-({[(4-isopropylbenzyl)sulfonyl]amino}carbonyl)piperidin-1-yl]-2-methylnicotinate]
	less than 0.2%	CCOC(=O)c1cc(C#N)c(N2CCC(C(=O)NS(=O)(=O)Cc3ccccc3)CC2)nc1C [Form I, 6-(4-{[(benzylsulfonyl)amino]carbonyl}piperidin-1-yl)-5-cyano-2-methylnicotinic acid ethyl ester]
